For 19 compounds, T/C results are on record in PubChem BioAssay AID248 (DTP/NCI, 2004).

This experiment has as its system L1210 leukemia ip in BDF1 mice, survival T/C. The experiment can be described thus: NCI In Vivo Anticancer Drug Screen. Data for tumor model L1210 Leukemia (intraperitoneal) in B6D2F1 (BDF1) mice. Conditions: endpoint: mean survival time, higher = longer survival. An outline of the steps:
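Value reflects the ratio of survival in compound-treated mice to survival in vehicle-treated controls, with both groups carrying the same transplanted tumor.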

[1] abbreviates: dose: 25.0 mg/kg/injection, schedule: Q01DX009 (ip), vehicle: saline.
[2] abbreviates: dose: 50.0 mg/kg/injection, schedule: Q01DX009 (ip), vehicle: saline.
[3] abbreviates: dose: 100.0 mg/kg/injection, schedule: Q01DX009 (ip), vehicle: saline.
Where [4] appears, read: dose: 100.0 mg/kg/injection, schedule: Q04DX003 (ip), vehicle: saline.
Where [5] appears, read: dose: 200.0 mg/kg/injection, schedule: Q01DX009 (ip), vehicle: saline.
Setting [6] is: dose: 200.0 mg/kg/injection, schedule: Q04DX003 (ip), vehicle: saline.
Setting [7] is: dose: 400.0 mg/kg/injection, schedule: Q01DX009 (ip), vehicle: saline.
[8] abbreviates: dose: 400.0 mg/kg/injection, schedule: Q04DX003 (ip), vehicle: saline.
Where [9] appears, read: dose: 50.0 mg/kg/injection, schedule: Q01DX001 (ip), vehicle: carboxymethylcellulose (CMC).
[10] abbreviates: dose: 100.0 mg/kg/injection, schedule: Q01DX001 (ip), vehicle: carboxymethylcellulose (CMC).
Setting [11] is: dose: 200.0 mg/kg/injection, schedule: Q01DX001 (ip), vehicle: carboxymethylcellulose (CMC).
Setting [12] is: dose: 200.0 mg/kg/injection, schedule: Q01DX001 (ip), vehicle: saline.
The mark [13] stands for this setting: dose: 50.0 mg/kg/injection, schedule: Q01DX009 (ip), vehicle: saline with Tween-80.
The mark [14] stands for this setting: dose: 100.0 mg/kg/injection, schedule: Q01DX009 (ip), vehicle: saline with Tween-80.
[15] abbreviates: dose: 100.0 mg/kg/injection, schedule: Q01DX009 (ip), vehicle: Klucel (hydroxypropylcellulose) (HPC).
The mark [16] stands for this setting: dose: 200.0 mg/kg/injection, schedule: Q01DX009 (ip), vehicle: Klucel (hydroxypropylcellulose) (HPC).
Where [17] appears, read: dose: 200.0 mg/kg/injection, schedule: Q04DX003 (ip), vehicle: saline with Tween-80.
Where [18] appears, read: dose: 200.0 mg/kg/injection, schedule: Q01DX009 (ip), vehicle: saline with Tween-80.
Where [19] appears, read: dose: 50.0 mg/kg/injection, schedule: Q01DX009 (ip), vehicle: Klucel (hydroxypropylcellulose) (HPC).

Values joined by “and” are separate entries in the source; they are usually repeats but may differ in a detail not shown here. Equal values may be shown once. Inconclusive results and toxic doses are left out.

With `CC1CNC(=O)O1` (configuration not stated), the T/C runs as follows: under setting [1], 97 % of control; under setting [2], 97 % of control; (dose: 50.0 mg/kg/injection, schedule: Q04DX003 (ip), vehicle: saline) 106 % of control; under setting [3], 98 % of control; (dose: 100.0 mg/kg/injection, schedule: Q04DX002 (ip), vehicle: saline) 100 % of control; under setting [4], 106 % of control. The T/C was 95 % of control under setting [5]; 91 % of control (dose: 200.0 mg/kg/injection, schedule: Q04DX002 (ip), vehicle: saline); 101 % of control under setting [6]; 95 % of control under setting [7]; 91 % of control (dose: 400.0 mg/kg/injection, schedule: Q04DX002 (ip), vehicle: saline); 100 % of control under setting [8].
For `CCCC(NC)C(CC)CN` (configuration not stated), the T/C by setting is: under setting [9], 105 % of control and 120 % of control; (dose: 75.0 mg/kg/injection, schedule: Q01DX001 (ip), vehicle: saline) 97 % of control; (dose: 88.0 mg/kg/injection, schedule: Q01DX001 (ip), vehicle: saline) 109 % of control; under setting [10], 104 % of control; (dose: 133.0 mg/kg/injection, schedule: Q01DX001 (ip), vehicle: saline) 101 % of control; (dose: 150.0 mg/kg/injection, schedule: Q01DX001 (ip), vehicle: saline) 97 % of control. The T/C by setting is: under setting [11], 93 % of control and 242 % of control; under setting [12], 101 % of control.
Turning to `CCCCCCCC[Si](Br)(CCCCCCCC)CCCCCCCC`, the T/C runs as follows: (dose: 75.0 mg/kg/injection, schedule: Q01DX001 (ip), vehicle: acetone) 98 % of control; (dose: 150.0 mg/kg/injection, schedule: Q01DX001 (ip), vehicle: acetone) 93 % of control; (dose: 300.0 mg/kg/injection, schedule: Q01DX001 (ip), vehicle: acetone) 96 % of control.
In the case of `C1=CC2(C=C1)OC21CCC2(C=CC3(C2)OC3C2CCCCC2)CC1` (configuration not stated), the T/C was 94 % of control under setting [13] and 94 % of control under setting [14].
As to `O=C(Nc1ccccc1O)C(O)C(O)C(O)C(O)CO` (configuration not stated), the T/C was 87 % of control under setting [4], 97 % of control under setting [6] and 91 % of control under setting [8].
On to `CCOc1ccc(NC(=O)C(Br)C(Br)C(=O)O)cc1` (configuration not stated), for which the T/C is 94 % of control under setting [15]; 98 % of control under setting [16]; 100 % of control (dose: 400.0 mg/kg/injection, schedule: Q01DX009 (ip), vehicle: Klucel (hydroxypropylcellulose) (HPC)).
With `O=c1c2ccccc2c(=O)c2c1ccc1[nH]c3ccccc3n(-c3ccccc3)c12`, the T/C is, setting by setting: (dose: 100.0 mg/kg/injection, schedule: Q04DX003 (ip), vehicle: saline with Tween-80) 88 % of control; under setting [17], 89 % of control; (dose: 400.0 mg/kg/injection, schedule: Q04DX003 (ip), vehicle: saline with Tween-80) 94 % of control.
For `CCC/C(=N\NC(=O)c1ccccc1OC)c1ccccc1`, the T/C under setting [13] is 105 % of control, the T/C under setting [14] is 97 % of control and the T/C under setting [18] was 105 % of control.
For the compound `CCOC(=O)c1c2c3c(c(Br)cc(C)c3[nH]c1=O)C(=O)c1ccccc1-2`, the T/C was 97 % of control under setting [13], 101 % of control under setting [14] and 101 % of control under setting [18].
For the compound `Nc1cc(I)c2cccnc2c1O`, the T/C is 101 % of control (dose: 6.25 mg/kg/injection, schedule: Q01DX009 (ip), vehicle: saline); 95 % of control (dose: 10.0 mg/kg/injection, schedule: Q01DX015 (ip), vehicle: saline); 96 % of control (dose: 12.5 mg/kg/injection, schedule: Q01DX009 (ip), vehicle: saline); 87 % of control (dose: 20.0 mg/kg/injection, schedule: Q01DX015 (ip), vehicle: saline); 102 % of control under setting [1]; 98 % of control under setting [2].
`CC(=O)OCOC1C(COC(C)=O)OCOC(COC(C)=O)C1OCOC(C)=O` (configuration not stated): the T/C is 103 % of control (dose: 100.0 mg/kg/injection, schedule: Q01DX001 (ip), vehicle: Klucel (hydroxypropylcellulose) (HPC)); 103 % of control (dose: 200.0 mg/kg/injection, schedule: Q01DX001 (ip), vehicle: Klucel (hydroxypropylcellulose) (HPC)); 110 % of control (dose: 400.0 mg/kg/injection, schedule: Q01DX001 (ip), vehicle: Klucel (hydroxypropylcellulose) (HPC)).
As for `COc1ccc(CC[n+]2ccc(C#N)c(C(C)=O)c2)cc1OC`, the T/C was 106 % of control (dose: 75.0 mg/kg/injection, schedule: Q01DX001 (ip), vehicle: carboxymethylcellulose (CMC)) and 105 % of control (dose: 150.0 mg/kg/injection, schedule: Q01DX001 (ip), vehicle: carboxymethylcellulose (CMC)).
As for `O=[N+]([O-])Nc1ccnnc1`, the T/C (dose: 100.0 mg/kg/injection, schedule: Q01DX001 (ip), vehicle: saline) was 94 % of control; the T/C under setting [12] is 96 % of control; the T/C (dose: 400.0 mg/kg/injection, schedule: Q01DX001 (ip), vehicle: saline) is 96 % of control.
As for `CCO/C=C1\SC(=S)N(c2ccc(O)cc2)C1=O`, the T/C (dose: 12.5 mg/kg/injection, schedule: Q01DX009 (ip), vehicle: Klucel (hydroxypropylcellulose) (HPC)) is 103 % of control; the T/C (dose: 25.0 mg/kg/injection, schedule: Q01DX009 (ip), vehicle: Klucel (hydroxypropylcellulose) (HPC)) was 101 % of control; the T/C under setting [19] is 105 % of control; the T/C under setting [15] is 103 % of control; the T/C (dose: 100.0 mg/kg/injection, schedule: Q01DX009 (ip), vehicle: other) was 104 % of control; the T/C (dose: 100.0 mg/kg/injection, schedule: Q04DX003 (ip), vehicle: Klucel (hydroxypropylcellulose) (HPC)) is 98 % of control. Besides, the T/C is, setting by setting: (dose: 100.0 mg/kg/injection, schedule: Q04DX003 (ip), vehicle: saline sonified) 96 % of control; (dose: 200.0 mg/kg/injection, schedule: Q01DX009 (ip), vehicle: other) 108 % of control; (dose: 200.0 mg/kg/injection, schedule: Q04DX003 (ip), vehicle: Klucel (hydroxypropylcellulose) (HPC)) 98 % of control; (dose: 200.0 mg/kg/injection, schedule: Q04DX003 (ip), vehicle: saline sonified) 97 % of control; (dose: 400.0 mg/kg/injection, schedule: Q04DX003 (ip), vehicle: Klucel (hydroxypropylcellulose) (HPC)) 89 % of control; (dose: 400.0 mg/kg/injection, schedule: Q04DX003 (ip), vehicle: saline sonified) 99 % of control.
Regarding `O=C1C(=O)C(c2ccccc2)(c2ccccc2)c2cc(-c3ccccc3)c(-c3ccccc3)cc21`, the T/C under setting [17] was 93 % of control.
Consider `CCOc1ccc(NC(=O)c2cccc(Cl)c2)cc1`, for which the T/C by setting is: under setting [3], 109 % of control; under setting [5], 96 % of control; under setting [7], 96 % of control.
For the compound `Cc1cc(C)c(SC2c3ccccc3-c3ccccc32)c(C)c1`, the T/C runs as follows: (dose: 75.0 mg/kg/injection, schedule: Q01DX009 (ip), vehicle: saline with Tween-80) 95 % of control; (dose: 150.0 mg/kg/injection, schedule: Q01DX009 (ip), vehicle: saline with Tween-80) 102 % of control; (dose: 300.0 mg/kg/injection, schedule: Q01DX009 (ip), vehicle: saline with Tween-80) 96 % of control.
For the compound `O=C(O)/C(Br)=C\c1ccc(Br)o1`, the T/C runs as follows: under setting [19], 97 % of control; under setting [15], 94 % of control; (dose: 100.0 mg/kg/injection, schedule: Q04DX002 (ip), vehicle: Klucel (hydroxypropylcellulose) (HPC)) 97 % of control; under setting [16], 97 % of control; (dose: 200.0 mg/kg/injection, schedule: Q04DX002 (ip), vehicle: Klucel (hydroxypropylcellulose) (HPC)) 90 % of control.
`ClCCc1ccc(-n2cnc3c(Cl)ncnc32)cc1`: the T/C by setting is: under setting [9], 104 % of control; under setting [10], 106 % of control; under setting [11], 101 % of control; (dose: 400.0 mg/kg/injection, schedule: Q01DX001 (ip), vehicle: carboxymethylcellulose (CMC)) 98 % of control.
